For 15 compounds, IC50 results are on record in patent publication US20250122223A1, “HETEROCYCLIC COMPOUNDS AS UBIQUITIN SPECIFIC PROTEASE 7 INHIBITORS” (ALMAC DISCOVERY LIMITED, priority 2022, published 2025).

A word on the IC50: it is the concentration that inhibits the measured activity by half.

Where two headings read alike, the source gives them in different places.

The target in the test is USP7 (Homo sapiens (Human), UniProt Q93009). Put plainly: USP7 fluorescence polarisation (FP) assay with ubiquitin-Lys-TAMRA substrate. In kind it is biochemical. The settings on record: biochemical inhibition. A general note: Fluorescence polarisation rises when a labelled molecule tumbles more slowly, as on binding a larger partner.
Where [1] appears, read: read-out: USP7 IC50 activity (Table 3a, classes).
The mark [2] stands for this setting: unit not given in Table 3b (Table 1 and key of Table 3a use μM), read-out: USP7 IC50 activity (Table 3b).

Sequence of USP7 (Q93009 whole entry): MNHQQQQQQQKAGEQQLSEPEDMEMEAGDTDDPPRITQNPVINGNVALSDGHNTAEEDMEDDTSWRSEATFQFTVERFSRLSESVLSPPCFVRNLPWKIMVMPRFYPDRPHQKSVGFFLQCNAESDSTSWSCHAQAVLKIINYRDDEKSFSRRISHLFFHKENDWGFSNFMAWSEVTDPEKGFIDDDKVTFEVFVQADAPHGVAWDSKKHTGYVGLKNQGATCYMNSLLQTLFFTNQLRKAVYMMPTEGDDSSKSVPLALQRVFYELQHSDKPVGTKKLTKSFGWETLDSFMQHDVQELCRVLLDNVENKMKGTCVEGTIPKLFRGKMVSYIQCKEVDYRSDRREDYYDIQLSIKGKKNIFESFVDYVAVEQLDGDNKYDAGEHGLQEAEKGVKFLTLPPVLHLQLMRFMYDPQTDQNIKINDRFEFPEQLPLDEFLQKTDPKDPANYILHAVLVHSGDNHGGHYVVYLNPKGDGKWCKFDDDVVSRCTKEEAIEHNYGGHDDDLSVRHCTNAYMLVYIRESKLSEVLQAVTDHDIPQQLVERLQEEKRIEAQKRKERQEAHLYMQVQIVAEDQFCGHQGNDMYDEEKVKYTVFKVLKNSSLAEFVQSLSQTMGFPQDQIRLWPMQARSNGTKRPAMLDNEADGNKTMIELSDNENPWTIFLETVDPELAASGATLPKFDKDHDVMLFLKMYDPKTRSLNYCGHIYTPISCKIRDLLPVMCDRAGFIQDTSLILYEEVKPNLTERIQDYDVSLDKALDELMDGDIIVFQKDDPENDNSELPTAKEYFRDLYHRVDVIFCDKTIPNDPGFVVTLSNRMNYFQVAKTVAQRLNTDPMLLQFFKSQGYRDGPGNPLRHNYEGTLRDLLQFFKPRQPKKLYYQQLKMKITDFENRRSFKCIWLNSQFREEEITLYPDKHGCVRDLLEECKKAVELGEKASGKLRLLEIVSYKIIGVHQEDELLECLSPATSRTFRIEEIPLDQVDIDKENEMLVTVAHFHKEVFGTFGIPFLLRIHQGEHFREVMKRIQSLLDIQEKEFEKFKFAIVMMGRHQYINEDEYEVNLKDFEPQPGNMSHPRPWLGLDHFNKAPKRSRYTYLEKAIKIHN

On to `Cc1cc(-n2c(Cl)cc3c(=O)n(CC4(O)CCN(C(=O)c5ccc(C(F)F)cc5)CC4)cnc32)ccc1[C@H]1CO[C@H](C)CN1` [Example 92, 6-Chloro-3-((1-(4-(difluoromethyl)benzoyl)-4-hydroxypiperidin-4-yl)methyl)-7-(3-methyl-4-((3S,6R)-6-methylmorpholin-3-yl)phenyl)-3,7-dihydro-4H-pyrrolo[2,3-d]pyrimidin-4-one], for which the IC50 under setting [1] was in the range of 0.1 to 0.25 µM and the IC50 under setting [2] was 0.111 µM.
On to `Cc1cc(-n2c(Cl)cc3c(=O)n(CC4(O)CCN(C(=O)c5ccc(C6CC6)cc5)CC4)cnc32)ccc1[C@H]1CO[C@H](C)CN1` [Example 93, 6-Chloro-3-((1-(4-cyclopropylbenzoyl)-4-hydroxypiperidin-4-yl)methyl)-7-(3-methyl-4-((3S,6R)-6-methylmorpholin-3-yl)phenyl)-3,7-dihydro-4H-pyrrolo[2,3-d]pyrimidin-4-one], for which the IC50 under setting [1] was in the range of 0.1 to 0.25 µM and the IC50 under setting [2] amounted to 0.16 µM.
The matching figures for `Cc1cc(-n2c(Cl)cc3c(=O)n(CC4(O)CCN(C(=O)c5ccc(C6(C)CC6)cc5)CC4)cnc32)ccc1[C@H]1CO[C@H](C)CN1` [Example 94, 6-Chloro-3-((4-hydroxy-1-(4-(1-methylcyclopropyl)benzoyl)piperidin-4-yl)methyl)-7-(3-methyl-4-((3S,6R)-6-methylmorpholin-3-yl)phenyl)-3,7-dihydro-4H-pyrrolo[2,3-d]pyrimidin-4-one]: 0.1 to 0.25 µM and 0.193 µM.
The matching figures for `CC[C@H]1CN[C@H](c2ccc(-n3c(Cl)cc4c(=O)n(CC5(O)CCN(C(=O)[C@@]6(C)C[C@@H]6C)CC5)cnc43)cc2)CO1` [Example 95, 6-Chloro-3-((1-((1 S,2S)-1,2-dimethylcyclopropane-1-carbonyl)-4-hydroxypiperidin-4-yl)methyl)-7-(4-((3R,6S)-6-ethylmorpholin-3-yl)phenyl)-3,7-dihydro-4H-pyrrolo[2,3-d]pyrimidin-4-one]: 0.1 to 0.25 µM and 0.132 µM.
As for `CC[C@H]1CN[C@H](c2ccc(-n3c(Cl)cc4c(=O)n(CC5(O)CCN(C(=O)[C@]6(C)C[C@H]6C)CC5)cnc43)cc2)CO1` [Example 96, 6-Chloro-3-((1-((1R,2R)-1,2-dimethylcyclopropane-1-carbonyl)-4-hydroxypiperidin-4-yl)methyl)-7-(4-((3R,6S)-6-ethylmorpholin-3-yl)phenyl)-3,7-dihydro-4H-pyrrolo[2,3-d]pyrimidin-4-one], the IC50 was < 0.1 µM under setting [1] and 0.037 µM under setting [2].
The matching figures for `C[C@H]1CN[C@H](c2ccc(-n3c(Cl)cc4c(=O)n(CC5(O)CCN(C(=O)C(C6CC6)C6CC6)CC5)cnc43)cc2)CO1` [Example 99, 6-Chloro-3-((1-(2,2-dicyclopropylacetyl)-4-hydroxypiperidin-4-yl)methyl)-7-(4-((3R,6S)-6-methylmorpholin-3-yl)phenyl)-3,7-dihydro-4H-pyrrolo[2,3-d]pyrimidin-4-one]: 0.25 to 2 µM and 0.263 µM.
The corresponding values for `CC1(C(=O)N2CCC(O)(Cn3cnc4c(cc(Cl)n4-c4ccc([C@@H]5CO[C@@H](C6CC6)CN5)cc4)c3=O)CC2)CC1` [Example 100, 6-Chloro-7-(4-((3R,6S)-6-cyclopropylmorpholin-3-yl)phenyl)-3-((4-hydroxy-1-(1-methylcyclopropane-1-carbonyl)piperidin-4-yl)methyl)-3,7-dihydro-4H-pyrrolo[2,3-d]pyrimidin-4-one] are < 0.1 µM and 0.079 µM.
For the compound `C[C@H]1CN[C@H](c2ccc(-n3c(Cl)cc4c(=O)n(CC5(O)CCN(C(=O)C6(C)CC6)CC5)cnc43)cc2)CO1` [Example 101, 6-Chloro-3-((4-hydroxy-1-(1-methylcyclopropane-1-carbonyl)piperidin-4-yl)methyl)-7-(4-((3R,6S)-6-methylmorpholin-3-yl)phenyl)-3,7-dihydro-4H-pyrrolo[2,3-d]pyrimidin-4-one], the IC50 runs as follows: under setting [1], < 0.1 µM; under setting [2], 0.057 µM.
The corresponding values for `C[C@H]1CN[C@H](c2ccc(-n3c(Cl)cc4c(=O)n(CC5(O)CCN(C(=O)C6(C)CCC6)CC5)cnc43)cc2)CO1` [Example 102, 6-Chloro-3-((4-hydroxy-1-(1-methylcyclobutane-1-carbonyl)piperidin-4-yl)methyl)-7-(4-((3R,6S)-6-methylmorpholin-3-yl)phenyl)-3,7-dihydro-4H-pyrrolo[2,3-d]pyrimidin-4-one] are < 0.1 µM and 0.05 µM.
The matching figures for `C[C@H]1CN[C@H](c2ccc(-n3c(Cl)cc4c(=O)n(CC5(O)CCN(C(=O)CCC6CC6)CC5)cnc43)cc2)CO1` [Example 103, 6-Chloro-3-((1-(3-cyclopropylpropanoyl)-4-hydroxypiperidin-4-yl)methyl)-7-(4-((3R,6S)-6-methylmorpholin-3-yl)phenyl)-3,7-dihydro-4H-pyrrolo[2,3-d]pyrimidin-4-one]: 0.1 to 0.25 µM and 0.211 µM.
With `CC1(C(=O)N2CCC(O)(Cn3cnc4c(cc(Cl)n4-c4ccc([C@H]5CO[C@H](C6CC6)CN5)cc4)c3=O)CC2)CC1` [Example 104, 6-Chloro-7-(4-((3S,6R)-6-cyclopropylmorpholin-3-yl)phenyl)-3-((4-hydroxy-1-(1-methylcyclopropane-1-carbonyl)piperidin-4-yl)methyl)-3,7-dihydro-4H-pyrrolo[2,3-d]pyrimidin-4-one], the concentration for half-maximal inhibition (IC50) is < 0.1 µM under setting [1] and 0.094 µM under setting [2].
The corresponding values for `CC[C@@H]1CN[C@@H](c2ccc(-n3c(Cl)cc4c(=O)n(CC5(O)CCN(C(=O)C6(C)CC6)CC5)cnc43)cc2)CO1` [Example 105, 6-Chloro-7-(4-((3S,6R)-6-ethylmorpholin-3-yl)phenyl)-3-((4-hydroxy-1-(1-methylcyclopropane-1-carbonyl)piperidin-4-yl)methyl)-3,7-dihydro-4H-pyrrolo[2,3-d]pyrimidin-4-one] are < 0.1 µM and 0.073 µM.
On to `CC[C@H]1CN[C@H](c2ccc(-n3c(Cl)cc4c(=O)n(CC5(O)CCN(C(=O)C6(C)CC6)CC5)cnc43)cc2)CO1` [Example 106, 6-Chloro-7-(4-((3R,6S)-6-ethylmorpholin-3-yl)phenyl)-3-((4-hydroxy-1-(1-methylcyclopropane-1-carbonyl)piperidin-4-yl)methyl)-3,7-dihydro-4H-pyrrolo[2,3-d]pyrimidin-4-one], for which the concentration for half-maximal inhibition (IC50) by setting is: under setting [1], 0.1 to 0.25 µM; under setting [2], 0.121 µM.
The matching figures for `C[C@@H]1CN[C@@H](c2ccc(-n3c(Cl)cc4c(=O)n(CC5(O)CCN(C(=O)C6(C)CC6)CC5)cnc43)cc2)CO1` [Example 107, 6-Chloro-3-((4-hydroxy-1-(1-methylcyclopropane-1-carbonyl)piperidin-4-yl)methyl)-7-(4-((3S,6R)-6-methylmorpholin-3-yl)phenyl)-3,7-dihydro-4H-pyrrolo[2,3-d]pyrimidin-4-one]: < 0.1 µM and 0.093 µM.
The corresponding values for `C[C@@H]1CN[C@@H](c2ccc(-n3c(Cl)cc4c(=O)n(CC5(O)CCN(C(=O)[C@]6(C)C[C@H]6C(F)(F)F)CC5)cnc43)cc2)CO1` [Example 108, 6-Chloro-3-((4-hydroxy-1-((1R,2R)-1-methyl-2-(trifluoromethyl)cyclopropane-1-carbonyl)piperidin-4-yl)methyl)-7-(4-((3S,6R)-6-methylmorpholin-3-yl)phenyl)-3,7-dihydro-4H-pyrrolo[2,3-d]pyrimidin-4-one] are < 0.1 µM and 0.042 µM.
